Data: patent publication US20230391779A1, “BICYCLIC COMPOUNDS, COMPOSITIONS AND USE THEREOF” (Betta Pharmaceuticals Co., Ltd., priority 2020, published 2023)

System: TEAD-YAP/TAZ interaction
Assay: CTGF ELISA assay
Type: cell-based, human
Conditions: CTGF in culture supernatant of NCI-H2052 cells, 24 hours with compound
Protocol: The detection of CTGF expression level can assessed the binding activity of TEAD-YAP/TAZ transcription factor, and the CTGF expression level was quantified by SimpleStep ELISA® kit (Abcam, ab261851).
NCI-H2052 cells (Purchased from ATCC) were cultured in RPMI 1640 medium, adding 10% FBS and 1% Penicillin-Streptomycin Solution and 1 mM Sodium pyruvate. The day before compounds treatment, the cultured cells were washed with PBS and digested with trypsin, then centrifuged and collected. Discarded the supernatant, the cells were resuspended in fresh complete medium. After cells counted, cells were seeded at 6500 cells/well in 96-well plates. And then cells were cultured overnight in incubator (37° C., 5% CO2).
After the cells were cultured overnight, discarded the culture supernatant, then washed with PBS solution, cells were incubated with 200 μl medium containing compounds in each well. The starting concentration was 10 μM and serial dilution in DMSO and medium were performed to achieve a final DMSO concentration of 0.5% (Final compounds concentration were 10000, 2500, 625, 156, 39.1, 9.77, 2.44, 0.61 nM, 0 nM (0.5% DMSO), The cells were then cultured in incubator (37° C., 5% CO2). Cultured for 24 hours, the cells were centrifuged at 1500 RPM at 4° C. for 5 minutes, and then 50 μl of culture supernatant were tested for CTGF ELISA assay.
The Human CTGF SimpleStep ELISA® Kit (Abcam, ab261851) employs an affinity tag labeled capture antibody and a reporter conjugated detector antibody which immunocapture the sample analyte in solution. This entire complex (capture antibody/analyte/detector antibody) is in turn immobilized via immunoaffinity of an anti-tag antibody coating the well. To perform the assay, samples or standards are added to the wells, followed by the antibody mix (capture antibody/detector antibody). After incubation, the wells are washed to remove unbound material. TMB Development Solution is added and during incubation is catalyzed by HRP, generating blue coloration. This reaction is then stopped by addition of Stop Solution completing any color change from blue to yellow. Signal is generated proportionally to the amount of bound analyte and the intensity is measured at 450 nm. Firstly, prepare all reagents, samples, and standards as instructed. Add 50 μl standard or sample to appropriate wells. Then add 50 μl of the Antibody Cocktail to each well. Seal the plate and incubate for 1 hour at room temperature on a plate shaker. Wash each well with Wash Buffer three times. Add 100 μl of TMB Development Solution to each well and incubate for 10 minutes in the dark on a plate shaker. Add 100 μl of Stop Solution to each well. Shake plate on a plate shaker for 1 minute to mix. Record the OD at 450 nm. Determine the concentration of the target protein in the sample by the standard curve.
EC50 value was determined by fitting the concentration response curves using GraphPad Prism software. The compounds of the present invention were tested for their capacity to inhibit TEAD-YAP/TAZ interaction according to the fitted curves of CTGF concentration response to compounds.

EC50 | Structure (SMILES)
> 10000 nM | C=C(F)C(=O)NCC(C=O)n1nc(-c2ccc(C(F)(F)F)cc2)c2cccnc21 (centres unmarked) [Com. EX.1, 2-fluoro-N-(3-oxo-2-(3-(4-(trifluoromethyl)phenyl)-1H-pyrazolo[3,4-b]pyridin-1-yl)propyl)acrylamide, reference compound]
> 10000 nM | C=C(F)C(=O)NCC(C(=O)O)n1nc(-c2ccc(C(F)(F)F)cc2)c2cccnc21 (centres unmarked) [Com. EX.2, 3-(2-fluoroacrylamido)-2-(3-(4-(trifluoromethyl)phenyl)-1H-pyrazolo[3,4-b]pyridin-1-yl)propanoic acid, reference compound]
> 10000 nM | CC(=O)N1CCC(n2nc(-c3ccc(C(F)(F)F)cc3)c3ccccc32)C1 (centres unmarked) [Com. EX.3, 1-(3-(3-(4-(trifluoromethyl)phenyl)-1H-indazol-1-yl)pyrrolidin-1-yl)ethan-1-one, reference compound]
> 10000 nM | C=C(F)C(=O)N1CC(n2c(=O)n(-c3ccc(Oc4ccccc4)cc3)c3cnccc32)C1 [Com. EX.4, 1-(1-(2-fluoroacryloyl)azetidin-3-yl)-3-(4-phenoxyphenyl)-1,3-dihydro-2H-imidazo[4,5-c]pyridin-2-one, reference compound]
> 10000 nM | CCOC(=O)N1CC(n2nc(-c3ccc(OC(F)(F)F)cc3)c3cccnc32)C1 [Com. EX.5, ethyl 3-(3-(4-(trifluoromethoxy)phenyl)-1H-pyrazolo[3,4-b]pyridin-1-yl)azetidine-1-carboxylate, reference compound]
25 nM | C=CC(=O)N1CCC(n2nc(-c3ccc(C(F)(F)F)cc3)c3nc[nH]c(=O)c32)C1 (centres unmarked) [Compound 2, 1-(1-acryloylpyrrolidin-3-yl)-3-(4-(trifluoromethyl)phenyl)-1,6-dihydro-7H-pyrazolo[4,3-d]pyrimidin-7-one]
15.5 nM | C=CC(=O)N1CCC(c2nn(-c3ccc(C(F)(F)F)cc3)c3ccccc23)C1 (centres unmarked) [Compound 4, 1-(3-(1-(4-(trifluoromethyl)phenyl)-1H-indazol-3-yl)pyrrolidin-1-yl)prop-2-en-1-one]
5 nM | C=CC(=O)N1CCC(n2nc(-c3ccc(C(F)(F)F)cc3)c3ncn(C)c(=O)c32)C1 (centres unmarked) [Compound 7, 1-(1-acryloylpyrrolidin-3-yl)-6-methyl-3-(4-(trifluoromethyl)phenyl)-1,6-dihydro-7H-pyrazolo[4,3-d]pyrimidin-7-one]
1.4 nM | C=C(F)C(=O)N1CC(n2nc(-c3ccc(C(F)(F)F)cc3)c3cccnc32)C1C (centres unmarked) [Compound 9, 2 fluoro-1-(2-methyl-3-(3-(4-(trifluoromethyl)phenyl)-1H-pyrazolo[3,4-b]pyridin-1 yl)azetidin-1 yl)prop-2-en-1-one]
0.7 nM | C=C(F)C(=O)N1CC(n2nc(Nc3ccc(C(F)(F)F)cc3)c3ccc(C)nc32)C1 [Compound 11, 2 fluoro-1-(3-(6-methyl-3-((4-(trifluoromethyl)phenyl)amino)-1H-pyrazolo[3,4-b]pyridin-1 yl)azetidin-1 yl)prop-2-en-1-one]
20 nM | C=CC(=O)NC1CN(c2nc(-c3ccc(C(F)(F)F)cc3)n3ccccc23)C1 [Compound 13, N-(1-(3-(4-(trifluoromethyl)phenyl)imidazo[1,5-a]pyridin-1 yl)azetidin-3 yl)acrylamide]
35 nM | C=CC(=O)N1CC(n2nc(-c3ccc(C(F)(F)F)cc3)c3cccc(NC(C)=O)c32)C1 [Compound 15, N-(1-(1-acryloylazetidin-3 yl)-3-(4-(trifluoromethyl)phenyl)-1H-indazol-7-yl)acetamide]
10 nM | C=CC(=O)N1CCC(n2nc(-c3ccc(C(F)(F)F)cc3)c3nccnc32)C1 (centres unmarked) [Compound 18, 1-(3-(3-(4-(trifluoromethyl)phen-yl)-1H-pyrazolo[3,4-b]pyrazin-1-yl)pyrrolidin-1-yl)prop-2-en-1-one]
20 nM | C=CC(=O)N1CCC(n2nc(-c3ccc(C(F)(F)F)cc3)c3ccncc32)C1 (centres unmarked) [Compound 22, 1-(3-(3-(4-(trifluoromethyl)phen-yl)-1H-pyrazolo[3,4-c]pyridin-1-yl)pyrrolidin-1-yl)prop-2-en-1-one]
16 nM | C=CC(=O)N1CCC(n2nc(-c3ccc(C(F)(F)F)cc3)c3cnccc32)C1 (centres unmarked) [Compound 23, 1-(3-(3-(4-(trifluoromethyl)phen-yl)-1H-pyrazolo[4,3-c]pyridin-1-yl)pyrrolidin-1-yl)prop-2-en-1-one]
12 nM | C=CC(=O)N1CCC(n2nc(-c3ccc(C(F)(F)F)cc3F)c3cccnc32)C1 (centres unmarked) [Compound 29, 1-(3-(3-(2-fluoro-4-(trifluoro-methyl)phenyl)-1H-pyrazolo[3,4-b]pyridin-1-yl)pyrrolidin-1-yl)-prop-2-en-1-one]
32 nM | C=CC(=O)N1CCCC(n2nc(-c3ccc(C(F)(F)F)cc3)c3cccnc32)C1 (centres unmarked) [Compound 33, 1-(3-(3-(4-(trifluoromethyl)phen-yl)-1H-pyrazolo[3,4-b]pyridin-1-yl)piperidin-1-yl)prop-2-en-1-one]
137 nM | C=CC(=O)N1CCC(Cn2nc(-c3ccc(C(F)(F)F)cc3)c3ccccc32)C1 (centres unmarked) [Compound 34, 1-(3-((3-(4-(trifluoromethyl)phen-yl)-1H-indazol-1-yl)methyl)-pyrrolidin-1-yl)prop-2-en-1-one]
42 nM | C=CC(=O)NC1CCC(n2nc(-c3ccc(C(F)(F)F)cc3)c3ccccc32)C1 (centres unmarked) [Compound 37, N-(3-(3-(4-(trifluoromethyl)phen-yl)-1H-indazol-1-yl)cyclopentyl)-acrylamide]
14 nM | C=CC(=O)N1CCC(n2nc(-c3ccc(C(F)(F)F)cc3)c3cccc(C)c32)C1 (centres unmarked) [Compound 39, 1-(3-(7-methyl-3-(4-(trifluoro-methyl)phenyl)-1H-indazol-1-yl)pyrrolidin-1-yl)prop-2-en-1-one]
14 nM | C=CC(=O)N1CCC(n2nc(-c3ccc(C(F)(F)F)cc3)c3cccc(C(N)=O)c32)C1 (centres unmarked) [Compound 42, 1-(1-acryloylpyrrolidin-3-yl)-3-(4-(trifluoromethyl)phenyl)-1H-indazole-7-carboxamide]
11 nM | C=CC(=O)N1CCN(C(=O)c2nn(-c3ccc(C(F)(F)F)cc3)c3ccccc23)CC1 [Compound 43, 1-(4-(1-(4-(trifluoromethyl)phen-yl)-1H-indazole-3-carbonyl)-piperazin-1-yl)prop-2-en-1-one]
20 nM | C=CC(=O)N1CCC(n2nc(-c3ccc(C(F)(F)F)cc3)c3cccc(OC)c32)C1 (centres unmarked) [Compound 44, 1-(3-(7-methoxy-3-(4-(trifluoro-methyl)phenyl)-1H-indazol-1-yl)-pyrrolidin-1-yl)prop-2-en-1-one]
15 nM | C=CC(=O)N1CCC(n2nc(-c3ccc(C(F)(F)F)cc3)c3cccc(Cl)c32)C1 (centres unmarked) [Compound 45, 1-(3-(7-chloro-3-(4-(trifluoro-methyl)phenyl)-1H-indazol-1-yl)-pyrrolidin-1-yl)prop-2-en-1-one]
12 nM | C=CC(=O)N1CCC(n2nc(-c3ccc(C(F)(F)F)cc3)c3cccc(C(F)(F)F)c32)C1 (centres unmarked) [Compound 46, 1-(3-(7-(trifluoromethyl)-3-(4-(trifluoromethyl)phenyl)-1H-indazol-1-yl)pyrrolidin-1-yl)-prop-2-en-1-one]
15 nM | C=CC(=O)N1CCC(n2nc(-c3ccc(C(F)(F)F)cc3)c3cccc(C#N)c32)C1 (centres unmarked) [Compound 48, 1-(1-acryloylpyrrolidin-3-yl)-3-(4-(trifluoromethyl)phenyl)-1H-indazole-7-carbonitrile]
23 nM | C=CC(=O)N1CCC(n2nc(-c3ccc(C(F)(F)F)cc3)c3ccc(F)cc32)C1 (centres unmarked) [Compound 50, 1-(3-(6-fluoro-3-(4-(trifluoro-methyl)phenyl)-1H-indazol-1-yl)-pyrrolidin-1-yl)prop-2-en-1-one]
44 nM | C=CC(=O)N1CCC(n2nc(-c3ccc(C(F)(F)F)cc3)c3cc(F)c(F)cc32)C1 (centres unmarked) [Compound 51, 1-(3-(5,6-difluoro-3-(4-(trifluoro-methyl)phenyl)-1H-indazol-1-yl)-pyrrolidin-1-yl)prop-2-en-1-one]
32 nM | C=CC(=O)N1CCC(n2nc(-c3ccc(C(F)(F)F)cc3)c3ccc(OC)cc32)C1 (centres unmarked) [Compound 54, 1-(3-(6-methoxy-3-(4-(trifluoro-methyl)phenyl)-1H-indazol-1-yl)-pyrrolidin-1-yl)prop-2-en-1-one]
